Results: US5977326A, “Process for making morphine-6-glucuronide or substituted morphine-6-glucuronide” (priority 1991, dated 1999)

Key:
[1] = target: μ1 Receptor (opioid analgesia receptor) (Homo sapiens, UniProt P35372); format: binding
From the text: compound which displaces 50% of a labelled competitive ligand from […]

[2] = In vivo antinociceptive activity (A.U.C.), animal pain model; details: area under the time effect curve
From the text: *A.U.C. = area under the time effect curve.

[3] = versus morphine; R. Osborne et al., The Lancet, 1988, 828; cited from earlier work

μ1 Receptor (opioid analgesia receptor), sequence (P35372 whole entry): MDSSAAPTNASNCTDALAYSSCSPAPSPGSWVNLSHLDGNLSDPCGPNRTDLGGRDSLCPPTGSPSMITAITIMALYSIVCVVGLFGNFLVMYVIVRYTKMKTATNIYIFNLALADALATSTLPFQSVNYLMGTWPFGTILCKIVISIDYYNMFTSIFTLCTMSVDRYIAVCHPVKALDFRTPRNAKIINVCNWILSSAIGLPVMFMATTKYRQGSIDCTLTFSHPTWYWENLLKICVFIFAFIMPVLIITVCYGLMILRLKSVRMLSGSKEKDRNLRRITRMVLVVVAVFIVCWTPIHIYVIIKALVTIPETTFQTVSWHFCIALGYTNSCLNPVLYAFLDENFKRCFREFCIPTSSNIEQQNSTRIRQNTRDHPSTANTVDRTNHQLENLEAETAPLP

SMILES	binding affinity to the receptor (μ1), in words [1]	In vivo antinociceptive (A.U.C.) ([2]; 1 mg)	In vivo antinociceptive (A.U.C.) ([2]; 2 mg)	In vivo antinociceptive (A.U.C.) ([2]; 4 mg)	In vivo antinociceptive (A.U.C.) ([2]; 8 mg)	analgesic power compared with morphine [3]
CN1CC[C@]23c4c5ccc(O)c4O[C@H]2[C@@H](O[C@@H]2O[C@H](C(=O)O)[C@@H](O)[C@H](O)[C@H]2O)CC[C@H]3[C@H]1C5 [Compound 6, 1-(7,8-dihydromorphin-6-yl)-β-D-glucopyranosiduronic acid]	greatest binding affinity to the relevant receptor (μ1)	277.4	720.4	753.3	–	–
O=C(O)[C@H]1O[C@@H](O[C@H]2C=C[C@H]3[C@H]4Cc5ccc(O)c6c5[C@@]3(CCN4)[C@H]2O6)[C@H](O)[C@@H](O)[C@@H]1O [Compound 5]	–	–	65.6	564.8	837.9	–
CN1CC[C@]23c4c5ccc(O)c4O[C@H]2[C@@H](O[C@@H]2O[C@H](C(=O)O)[C@@H](O)[C@H](O)[C@H]2O)C=C[C@H]3[C@H]1C5 [Compound 2, morphine-6-glucuronide]	–	–	209.6	618.1	–	more powerful analgesic than morphine itself
CN1CC[C@]23c4c5ccc(O)c4O[C@H]2[C@@H](O[C@@H]2OC(C(=O)O)=C[C@H](O)[C@H]2O)C=C[C@H]3[C@H]1C5 [Compound 3]	–	–	205.0	168.5	175.5	–
CN1CC[C@]23c4c5ccc(O)c4O[C@H]2[C@@H](O[C@@H]2O[C@H](C(=O)O)[C@@H](O)[C@H]2O)C=C[C@H]3[C@H]1C5 [Compound 4]	–	–	–	238.1	68.3	–
CN1CC[C@]23c4c5ccc(O)c4O[C@H]2[C@@H](O)C=C[C@H]3[C@H]1C5 [Compound 1, morphine]	–	197.3	241.4	738.3	–	–
